Results taken from ChEMBL document CHEMBL5543158, “Design of Evodiamine-Glucose Conjugates with Improved In Vivo Antitumor Activity” (J Med Chem, 2024).
≈ marks a conversion by molar mass, not a printed value. Calls of active or inactive are those of the source. The rule behind the calls is not given here.

Experiments:
[1] = Solubility of the compound in double distilled water measured upto 30 mins by UV-vis spectrophotometry; assay type: physicochemical
U-87 MG = assay: Antiproliferative activity against human U-87 MG cells measured after 72 hrs by CCK-8 cells; assay type: functional, cell-based, U-87MG ATCC
A549 = assay: Antiproliferative activity against human A549 cells measured after 72 hrs by CCK-8 cells; assay type: functional, cell-based; conditions: A549, 72 h
HCT-116 [2] = assay: Antiproliferative activity against human HCT116 cells measured after 72 hrs by CCK-8 cells; assay type: functional, cell-based; conditions: HCT-116, 72 h
HCT-116 [3] = assay: Antimigratory activity against human HCT116 cells assessed as wound healing rate incubated for 24 hrs by wound healing assay; assay type: functional, cell-based
HCT-116 [4] = assay: Antimigratory activity against human HCT116 cells assessed as wound healing rate at 0.05 to 0.002 microM incubated for 24 hrs by wound healing assay (reference value: 62%); assay type: functional; conditions: dose 0.05-0.002 µM, at 0.002 to 0.05 µM
HCT-116 [5] = assay: Antimigratory activity against human HCT116 cells assessed as inhibition of cell migration at 0.05 microM incubated for 24 hrs by wound healing assay relative to control; assay type: functional; set-up: scale not given: the % may be the effect or the level left
HCT-116 [6] = assay: Anti-invasive activity against human HCT116 cells assessed as decrease in number of cell migration into lower compartment incubated for 24 hrs by transwell assay; assay type: functional, cell-based; conditions: dose 0.02-0.05 µM
HCT-116 [7] = assay: Induction of apoptosis in human HCT116 cells assessed as accumulation of cells at G1 phase at 0.02 uM measured after 48 hrs by Annexin V-PI Flow cytometry assay (reference value: 51.12%); assay type: functional
HCT-116 [8] = assay: Induction of apoptosis in human HCT116 cells assessed as accumulation of cells at S phase at 0.02 uM measured after 48 hrs by Annexin V-PI Flow cytometry assay (reference value: 31.25%); assay type: functional
HCT-116 [9] = assay: Induction of apoptosis in human HCT116 cells assessed as accumulation of cells at G2 phase at 0.02 uM measured after 48 hrs by Annexin V-PI Flow cytometry assay (reference value: 17.63%); assay type: functional
HCT-116 [10] = assay: Induction of apoptosis in human HCT116 cells assessed as accumulation of cells at G1 phase at 0.05 uM measured after 48 hrs by Annexin V-PI Flow cytometry assay (reference value: 51.12%); assay type: functional
HCT-116 [11] = assay: Induction of apoptosis in human HCT116 cells assessed as accumulation of cells at S phase at 0.05 uM measured after 48 hrs by Annexin V-PI Flow cytometry assay (reference value: 31.25%); assay type: functional
HCT-116 [12] = assay: Induction of apoptosis in human HCT116 cells assessed as accumulation of cells at G2 phase at 0.05 uM measured after 48 hrs by Annexin V-PI Flow cytometry assay (reference value: 17.63%); assay type: functional
HCT-116 [13] = assay: Induction of apoptosis in human HCT116 cells assessed as accumulation of cells at G1 phase at 0.1 uM measured after 48 hrs by Annexin V-PI Flow cytometry assay (reference value: 51.12%); assay type: functional
HCT-116 [14] = assay: Induction of apoptosis in human HCT116 cells assessed as accumulation of cells at S phase at 0.1 uM measured after 48 hrs by Annexin V-PI Flow cytometry assay (reference value: 31.25%); assay type: functional
HCT-116 [15] = assay: Induction of apoptosis in human HCT116 cells assessed as accumulation of cells at G2 phase at 0.1 uM measured after 48 hrs by Annexin V-PI Flow cytometry assay (reference value: 17.63%); assay type: functional
HCT-116 [16] = assay: Induction of apoptosis in human HCT116 cells assessed as accumulation of cells at G1 phase at 0.2 uM measured after 48 hrs by Annexin V-PI Flow cytometry assay (reference value: 51.12%); assay type: functional
HCT-116 [17] = assay: Induction of apoptosis in human HCT116 cells assessed as accumulation of cells at S phase at 0.2 uM measured after 48 hrs by Annexin V-PI Flow cytometry assay (reference value: 31.25%); assay type: functional
HCT-116 [18] = assay: Induction of apoptosis in human HCT116 cells assessed as accumulation of cells at G2 phase at 0.2 uM measured after 48 hrs by Annexin V-PI Flow cytometry assay (reference value: 17.63%); assay type: functional
HCT-116 [19] = assay: Pro-oxidant effect in human HCT-116 cells assessed as induction of reactive oxygen level (ROS) measured after 12 hrs by flow cytometry using the 2',7'-dichloro-fluorescein diacetate (DCFH-DA) fluorescent probe assay; assay type: functional, cell-based; conditions: dose 0.02-0.5 µM
HCT-116 [20] = assay: Pro-oxidant effect in human HCT-116 cells assessed as induction of reactive oxygen level (ROS) measured after 12 hrs by 2',7'-dichloro-fluorescein diacetate (DCFH-DA) fluorescent probe based flow cytometry; assay type: functional, cell-based; conditions: dose 0.02-0.5 µM
HCT-116 [21] = assay: Reduction in GSH level in human HCT-116 cells assessed as reduced GSH content incubated for 12 hrs; assay type: functional, cell-based; conditions: dose 0.1-2 µM
HCT-116 [22] = assay: Induction of DNA damage in human HCT-116 cells assessed as increase in gamma-H2AX level at above 0.02 to 0.5 uM incubated for 12 hrs by Western blotting analysis; assay type: functional, cell-based; conditions: dose 0.02-0.5 µM
[23] = target: T1, DNA topoisomerase 1 (Homo sapiens) (UniProt P11387); assay: Inhibition of DNA topoisomerase I (unknown origin) mediated supercoiled DNA relaxation activity at 100 uM by agarose gel electrophoresis analysis
T1 sequence (whole entry): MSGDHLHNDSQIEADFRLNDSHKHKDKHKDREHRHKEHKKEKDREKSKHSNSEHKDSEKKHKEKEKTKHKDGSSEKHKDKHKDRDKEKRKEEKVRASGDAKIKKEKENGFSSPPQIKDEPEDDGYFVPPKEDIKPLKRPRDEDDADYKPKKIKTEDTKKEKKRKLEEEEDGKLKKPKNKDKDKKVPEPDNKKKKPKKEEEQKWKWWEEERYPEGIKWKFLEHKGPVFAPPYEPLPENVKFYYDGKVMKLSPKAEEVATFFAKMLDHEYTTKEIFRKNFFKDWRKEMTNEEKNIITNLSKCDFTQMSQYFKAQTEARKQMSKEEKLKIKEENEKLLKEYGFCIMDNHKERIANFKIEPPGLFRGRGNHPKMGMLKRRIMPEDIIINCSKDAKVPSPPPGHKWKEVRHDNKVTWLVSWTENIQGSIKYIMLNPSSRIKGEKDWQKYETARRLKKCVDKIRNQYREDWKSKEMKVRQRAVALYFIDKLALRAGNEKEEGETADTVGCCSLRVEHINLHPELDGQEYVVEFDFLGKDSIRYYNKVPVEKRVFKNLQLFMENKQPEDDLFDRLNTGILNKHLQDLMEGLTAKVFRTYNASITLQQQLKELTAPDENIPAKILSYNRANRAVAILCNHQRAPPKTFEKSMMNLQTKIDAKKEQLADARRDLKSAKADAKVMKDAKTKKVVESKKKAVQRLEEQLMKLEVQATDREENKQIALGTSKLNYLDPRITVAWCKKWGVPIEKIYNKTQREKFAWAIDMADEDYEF

Homo sapiens = species: Homo sapiens; assay: Inhibition of DNA topoisomerase 2 (unknown origin) mediated supercoiled DNA relaxation activity at 50 uM by agarose gel electrophoresis analysis
HCT-116 [24] = assay: Induction of apoptosis in 100 pmol GLUT1 siRNA treated human HCT-116 cells assessed as late apoptotic cells at 50 nM incubated for 48 hrs (reference value: 13.36%); assay type: functional

SMILES: CN1c2ccc(F)cc2C(=O)N2CCc3c([nH]c4ccc(O[C@@H]5O[C@H](CO)[C@@H](O)[C@H](O)[C@H]5O)cc34)[C@H]21
- solubility at 0.5 h [1]: 2150 µg/mL (≈ 4.3 mM)
- IC50 (U-87 MG): 64 nM
- IC50 (A549): 64 nM
- IC50 (HCT-116 [2]): 64 nM
- Activity (HCT-116 [3]): Dose-Dependent Effect
- Activity (HCT-116 [4]): 1.1%
- Activity (HCT-116 [5]): 100%
- Activity (HCT-116 [6]): Dose-Dependent Effect
- Activity (HCT-116 [7]): 43.27%
- Activity (HCT-116 [8]): 26.54%
- Activity (HCT-116 [9]): 30.19%
- Activity (HCT-116 [10]): 10.48%
- Activity (HCT-116 [11]): 32%
- Activity (HCT-116 [12]): 57.53%
- Activity (HCT-116 [13]): 1.57%
- Activity (HCT-116 [14]): 9.44%
- Activity (HCT-116 [15]): 88.98%
- Activity (HCT-116 [16]): 1.56%
- Activity (HCT-116 [17]): 5.6%
- Activity (HCT-116 [18]): 92.85%
- Activity (HCT-116 [19]): Dose-Dependent Effect
- Activity (HCT-116 [20]): Dose-Dependent Effect
- Activity (HCT-116 [21]): Dose-Dependent Effect
- Activity (HCT-116 [22]): Active
- inhibition [23]: Active
- inhibition (Homo sapiens): Active
- Activity (HCT-116 [24]): 22.61%
